Data as given in ChEMBL document CHEMBL5325411, “Design, synthesis and biological evaluation of novel phenylfuran-bisamide derivatives as P-glycoprotein inhibitors against multidrug resistance in MCF-7/ADR cell” (Eur J Med Chem, 2023).
Activity calls are given as the source filed them. The calls are words filed in the database; no cut-off is given here.

Tests used:
NCI/ADR-RES [1] = experiment: Cytotoxicity against DOX-resistant human MCF7/ADR cells assessed as reversal fold of resistance by measuring ratio of doxorubicin IC50 alone to doxorubicin IC50 in presence of test compound incubated for 48 hrs by CCK8 assay; assay type: functional
MCF7 = experiment: Cytotoxicity against human MCF7 cells assessed as cell growth inhibition at 5 uM incubated for 48 hrs by CCK8 assay relative to control; assay type: functional
NCI/ADR-RES [2] = experiment: Cytotoxicity against DOX-resistant human MCF7/ADR cells assessed as cell growth inhibition at 5 uM incubated for 48 hrs by CCK8 assay relative to control; assay type: functional
NCI/ADR-RES [3] = experiment: Downregulation of P-gp expression in DOX-resistant human MCF7/ADR cells at 0.5 to 5 uM incubated for 48 hrs by Western blot analysis; assay type: functional, cell-based; details: dose 0.5-5 µM
[4] = target: ATP-dependent translocase ABCB1 (Homo sapiens, UniProt P08183); experiment: Inhibition of P-gp in DOX-resistant human MCF7/ADR cells assessed as increase in intracellular Rh123 accumulation incubated for 4 hrs by flow cytometry; assay type: cell-based; details: mcf7adr, at 2.5 to 5 µM, dose 2.5-5 µM
ATP-dependent translocase ABCB1, sequence (P08183 whole entry): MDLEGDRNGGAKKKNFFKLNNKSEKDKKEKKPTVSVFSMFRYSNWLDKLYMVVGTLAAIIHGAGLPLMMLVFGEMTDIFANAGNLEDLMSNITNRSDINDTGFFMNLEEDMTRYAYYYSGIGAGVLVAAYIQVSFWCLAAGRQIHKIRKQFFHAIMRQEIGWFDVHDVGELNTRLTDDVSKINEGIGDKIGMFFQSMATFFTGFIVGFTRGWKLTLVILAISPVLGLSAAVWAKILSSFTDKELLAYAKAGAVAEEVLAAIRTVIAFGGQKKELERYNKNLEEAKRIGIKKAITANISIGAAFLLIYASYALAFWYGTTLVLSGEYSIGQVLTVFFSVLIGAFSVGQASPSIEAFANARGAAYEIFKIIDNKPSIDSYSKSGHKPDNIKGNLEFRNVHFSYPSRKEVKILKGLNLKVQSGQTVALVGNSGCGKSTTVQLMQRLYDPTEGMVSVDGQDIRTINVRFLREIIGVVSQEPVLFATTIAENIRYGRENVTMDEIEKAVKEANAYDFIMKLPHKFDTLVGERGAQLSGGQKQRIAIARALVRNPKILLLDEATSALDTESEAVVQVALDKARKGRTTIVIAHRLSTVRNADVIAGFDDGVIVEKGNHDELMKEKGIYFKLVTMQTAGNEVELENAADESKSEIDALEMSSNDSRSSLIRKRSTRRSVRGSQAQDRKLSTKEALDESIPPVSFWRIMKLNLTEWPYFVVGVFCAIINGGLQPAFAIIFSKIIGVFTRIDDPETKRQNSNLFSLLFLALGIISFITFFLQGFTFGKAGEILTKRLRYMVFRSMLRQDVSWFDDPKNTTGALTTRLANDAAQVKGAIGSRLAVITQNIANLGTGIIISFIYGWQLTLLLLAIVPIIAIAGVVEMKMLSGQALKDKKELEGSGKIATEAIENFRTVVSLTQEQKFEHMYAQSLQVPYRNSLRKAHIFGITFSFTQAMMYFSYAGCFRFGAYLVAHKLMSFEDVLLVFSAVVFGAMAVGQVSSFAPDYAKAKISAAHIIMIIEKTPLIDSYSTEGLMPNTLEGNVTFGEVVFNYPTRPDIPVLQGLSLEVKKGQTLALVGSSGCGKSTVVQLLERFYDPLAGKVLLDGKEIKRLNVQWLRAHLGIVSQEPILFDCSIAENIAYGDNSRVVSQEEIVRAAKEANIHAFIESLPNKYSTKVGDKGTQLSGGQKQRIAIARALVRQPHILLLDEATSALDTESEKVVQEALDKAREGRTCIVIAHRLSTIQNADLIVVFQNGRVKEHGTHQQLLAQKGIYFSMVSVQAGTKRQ

| inhibition (INH) [4] | Compound | Ratio IC50 (NCI/ADR-RES [1]) | inhibition at 5 µM (MCF7) [%] | inhibition at 5 µM (NCI/ADR-RES [2]) [%] | Activity (NCI/ADR-RES [3]) |
| --- | --- | --- | --- | --- | --- |
|  | COc1cc2c(cc1OC)CN(C(=O)c1ccc(-c3ccc(NC(C)=O)cc3)o1)CC2 | 18.6 | 11 | 10.1 |  |
|  | C/C=C/C[C@@H](C)[C@@H](O)[C@H]1C(=O)N[C@@H](CC)C(=O)N(C)CC(=O)N(C)[C@@H](CC(C)C)C(=O)N[C@@H](C(C)C)C(=O)N(C)[C@@H](CC(C)C)C(=O)N[C@@H](C)C(=O)N[C@H](C)C(=O)N(C)[C@@H](CC(C)C)C(=O)N(C)[C@@H](CC(C)C)C(=O)N(C)[C@@H](C(C)C)C(=O)N1C [CYCLOSPORINE] |  |  | 24.5 |  |
|  | COc1ccc2cc(C(=O)Nc3ccc(-c4ccc(C(=O)N5CCc6cc(OC)c(OC)cc6C5)o4)cc3)[nH]c2c1 | 437.1 | 7.3 | 12.4 |  |
|  | COc1cc2c(cc1OC)CN(C(=O)c1ccc(-c3ccc(NC(=O)C(C)(C)C)cc3)o1)CC2 | 78.4 | 12.9 | 23.3 |  |
|  | COc1ccc2[nH]c(C(=O)Nc3ccc(-c4ccc(C(=O)N5CCc6cc(OC)c(OC)cc6C5)o4)cc3)cc2c1 | 214.4 | 19.5 | 16.1 |  |
|  | C/C=C/C(=O)Nc1ccc(-c2ccc(C(=O)N3CCc4cc(OC)c(OC)cc4C3)o2)cc1 | 130.1 | 1.7 | 8.8 |  |
|  | COc1cc2c(cc1OC)CN(C(=O)c1ccc(-c3ccc(NC(=O)c4cc5ccc(F)cc5[nH]4)cc3)o1)CC2 | 566.4 | 28.1 | 16.9 |  |
|  | COc1cc2c(cc1OC)CN(C(=O)c1ccc(-c3ccc(NC(=O)c4cccc5[nH]ccc45)cc3)o1)CC2 | 220 | 7.6 | 9.2 |  |
|  | COc1ccc(-c2ccc(C(=O)N3CCc4cc(OC)c(OC)cc4C3)o2)cc1 | 39.4 | 11.2 | 25.7 |  |
|  | COc1cc2c(cc1OC)CN(C(=O)c1ccc(-c3ccc(NC(=O)C4CCCC4)cc3)o1)CC2 | 18.6 | 15.7 | 19.8 |  |
|  | COc1cc2c(cc1OC)CN(C(=O)c1ccc(-c3ccc(NC(=O)c4csc5ccccc45)cc3)o1)CC2 |  | 37.3 | 41.9 |  |
|  | COc1cc2c(cc1OC)CN(C(=O)c1ccc(-c3ccc(NC(=O)c4cc5ccccc5[nH]4)cc3)o1)CC2 | 540.5 | 13.3 | 15.1 |  |
|  | COc1cc2c(cc1OC)CN(C(=O)c1ccc(-c3ccc(NC(=O)c4ccc5ccccc5c4)cc3)o1)CC2 | 451.1 | 29.5 | 23.8 |  |
|  | COc1cc2c(cc1OC)CN(C(=O)c1ccc(-c3ccc(NC(=O)c4cc5cc(Br)ccc5[nH]4)cc3)o1)CC2 | 5473 | 26.8 | 19.5 |  |
|  | COc1cc2c(cc1OC)CN(C(=O)c1ccc(-c3ccc(NC(=O)c4cc5ccccc5s4)cc3)o1)CC2 |  | 48.8 | 46.8 |  |
| Dose-Dependent Effect | COc1cc2c(cc1OC)CN(C(=O)c1ccc(-c3ccc(NC(=O)c4cc5cc(F)ccc5[nH]4)cc3)o1)CC2 | 1163 | 12 | 19.8 | inactive |
|  | COc1cc2c(cc1OC)CN(C(=O)c1ccc(-c3ccc(NC(=O)c4cc5cc([N+](=O)[O-])ccc5[nH]4)cc3)o1)CC2 | 189.9 | 5.1 | 5.7 |  |
|  | COc1cc2c(cc1OC)CN(C(=O)c1ccc(-c3ccc(NC(=O)/C=C/c4ccccc4)cc3)o1)CC2 | 277.7 | 14.5 | 14.6 |  |

| inhibition (INH) [4] | Compound | Ratio IC50 (NCI/ADR-RES [1]) | inhibition at 5 µM (MCF7) [%] | inhibition at 5 µM (NCI/ADR-RES [2]) [%] | Activity (NCI/ADR-RES [3]) |
| --- | --- | --- | --- | --- | --- |
|  | COc1cc2c(cc1OC)CN(C(=O)c1ccc(-c3ccc(NC(=O)c4cc5c(C)cccc5[nH]4)cc3)o1)CC2 | 88.3 | 16.6 | 15.1 |  |
|  | COc1cc2c(cc1OC)CN(C(=O)c1ccc(-c3ccc(NC(=O)c4cc5ccccc5o4)cc3)o1)CC2 |  | 44.5 | 63.7 |  |
|  | CCCCC(=O)Nc1ccc(-c2ccc(C(=O)N3CCc4cc(OC)c(OC)cc4C3)o2)cc1 | 15.7 | 17.6 | 13.1 |  |
|  | COc1ccc(CCN(C)CCCC(C#N)(c2ccc(OC)c(OC)c2)C(C)C)cc1OC (stereo not drawn) |  |  | 12.2 |  |
|  | COc1cc2c(cc1OC)CN(C(=O)c1ccc(-c3ccc(NC(=O)c4c[nH]c5ccccc45)cc3)o1)CC2 | 347 | 16.1 | 18.2 |  |
|  | COc1cc2c(cc1OC)CN(C(=O)c1ccc(-c3ccc(NC(=O)c4cc5c(F)cc(F)cc5[nH]4)cc3)o1)CC2 | 600.2 | 9.1 | 14.7 |  |
|  | COc1cc2c(cc1OC)CN(C(=O)c1ccc(-c3ccc(NC(=O)c4cc5ccc(Br)cc5[nH]4)cc3)o1)CC2 | 497.5 | 7.4 | 14.7 |  |
|  | COc1cc2c(cc1OC)CN(C(=O)c1ccc(-c3ccc(NC(=O)c4cc5cc(C)ccc5[nH]4)cc3)o1)CC2 | 116.9 | 8.1 | 10.1 |  |
|  | COc1cc2c(cc1OC)CN(C(=O)c1ccc(-c3ccc(NC(=O)C(C)C)cc3)o1)CC2 | 46.5 | 19.1 | 18.4 |  |
|  | COc1cc2c(cc1OC)CN(C(=O)c1ccc(-c3ccc(NC(=O)C4CC4)cc3)o1)CC2 | 57.2 | 12.2 | 10.9 |  |
|  | COc1cc2c(cc1OC)CN(CCc1ccc(NC(=O)c3cc(OC)c(OC)cc3NC(=O)c3cnc4ccccc4c3)cc1)CC2 | 319.3 | 21.3 |  |  |
|  | COc1cc2c(cc1OC)CN(C(=O)c1ccc(-c3ccc(NC(=O)C4CCC4)cc3)o1)CC2 | 82.1 | 15.3 |  |  |
|  | COc1cc2c(cc1OC)CN(C(=O)c1ccc(-c3ccc(NC(=O)c4cccc5ccccc45)cc3)o1)CC2 | 201.7 | 34.8 | 28.4 |  |
|  | COc1cccc2c1C(=O)c1c(O)c3c(c(O)c1C2=O)C[C@@](O)(C(=O)CO)C[C@@H]3O[C@H]1C[C@H](N)[C@H](O)[C@H](C)O1 [DOXORUBICIN] | 1 |  |  |  |
|  | COc1cc2c(cc1OC)CN(C(=O)c1ccc(-c3ccc(NC(=O)Cc4cccc5ccccc45)cc3)o1)CC2 | 168.8 |  | 26.3 |  |
|  | COc1cc2c(cc1OC)CN(C(=O)c1ccc(-c3ccc(NC(=O)c4cc5cc(Cl)ccc5[nH]4)cc3)o1)CC2 | 613.3 | 15.8 | 14.4 |  |
|  | CCC(=O)Nc1ccc(-c2ccc(C(=O)N3CCc4cc(OC)c(OC)cc4C3)o2)cc1 | 33.3 | 17.2 | 23.2 |  |
|  | COc1cc2c(cc1OC)CN(C(=O)c1ccc(-c3ccc(NC(=O)CC(C)(C)C)cc3)o1)CC2 | 52 | 18.5 | 12.6 |  |
